PubChem BioAssay (NCI)
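These data come from cells grown in 96-well plates and exposed to compound for 48 hours at five concentrations. GI50 marks 50% less growth. TGI denotes the concentration required for complete inhibition of growth.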

How the values were obtained:
Experiment in all cases: inhibition of tumour cell growth, NCI panel, 48 h
EKVX NSCLC = tested on: EKVX NSCLC
HOP-92 NSCLC = tested on: HOP-92 NSCLC
NCI-H522 lung = tested on: NCI-H522 lung
SW-620 colon = tested on: SW-620 colon
K-562 leukemia = tested on: K-562 leukemia
SN12C renal = tested on: SN12C renal
SF-539 CNS = tested on: SF-539 CNS
OVCAR-5 ovarian = tested on: OVCAR-5 ovarian
BT-549 breast = tested on: BT-549 breast
MCF7 breast = tested on: MCF7 breast

What does the source list for `O=S1OC(c2ccccc2)(c2ccccc2)C(c2ccccc2)(c2ccccc2)O1`?
TGI (EKVX NSCLC): > 100 µM; TGI (HOP-92 NSCLC): > 100 µM; TGI (NCI-H522 lung): > 100 µM; TGI (SW-620 colon): > 100 µM; TGI (K-562 leukemia): > 100 µM; TGI (SN12C renal): > 100 µM; TGI (SF-539 CNS): > 100 µM; TGI (OVCAR-5 ovarian): > 100 µM

Which TGI (EKVX NSCLC) does the source give for `C/C(CN1C(=O)c2ccccc2C1=O)=N\NS(=O)(=O)c1ccc2ccccc2c1` here?
The TGI was greater than 100 µM.

And the TGI (NCI-H522 lung)?
The TGI was greater than 100 µM.

What about the TGI (SW-620 colon) of the same compound?
Its TGI is greater than 100 µM.

What about the TGI (K-562 leukemia) of the same compound?
The TGI was greater than 100 µM.

What about the TGI (SN12C renal) of the same compound?
Its TGI is greater than 100 µM.

And the TGI (SF-539 CNS)?
The TGI was greater than 100 µM.

What about the TGI (OVCAR-5 ovarian) of the same compound?
Its TGI is greater than 100 µM.

Which results are given for `O=C(CCc1n[nH]c(=S)o1)Nc1cc(Cl)ccc1Cl`?
TGI (EKVX NSCLC): > 100 µM; TGI (HOP-92 NSCLC): > 100 µM; TGI (SW-620 colon): 32.1 µM; TGI (K-562 leukemia): 52.1 µM; TGI (SN12C renal): > 100 µM; TGI (SF-539 CNS): > 100 µM; TGI (OVCAR-5 ovarian): > 100 µM

Which results are given for `COc1cccc2c1nc(C(F)F)n2-c1nc(-c2ccc(NS(=O)(=O)CCN(C)C)cc2)nc(N2CCOCC2)n1`?
GI50 (EKVX NSCLC): 0.0712 µM; TGI (EKVX NSCLC): 1.7 µM; GI50 (BT-549 breast): 0.314 µM; TGI (BT-549 breast): 16 µM; GI50 (NCI-H522 lung): 0.081 µM; TGI (NCI-H522 lung): 1.26 µM; GI50 (SW-620 colon): 0.341 µM; TGI (SW-620 colon): 6.78 µM; GI50 (K-562 leukemia): 1.2 µM; TGI (K-562 leukemia): 11.4 µM; GI50 (SN12C renal): 0.305 µM; TGI (SN12C renal): > 100 µM; GI50 (SF-539 CNS): 0.197 µM; TGI (SF-539 CNS): 2.63 µM; GI50 (OVCAR-5 ovarian): 0.0909 µM; TGI (OVCAR-5 ovarian): 17.3 µM

`Cc1ccc(S(=O)c2ccccc2[N+](=O)[O-])cc1` (stereo not drawn) was tested. Which TGI (HOP-92 NSCLC) did it give?
The TGI was greater than 100 µM.

And the TGI (NCI-H522 lung)?
Its TGI is greater than 100 µM.

What about the TGI (SW-620 colon) of the same compound?
Its TGI is greater than 100 µM.

And the TGI (K-562 leukemia)?
The TGI was greater than 100 µM.

What about the TGI (SN12C renal) of the same compound?
The TGI was greater than 100 µM.

And the TGI (SF-539 CNS)?
Its TGI is greater than 100 µM.

What about the TGI (OVCAR-5 ovarian) of the same compound?
Its TGI is greater than 100 µM.

With `N#CC(C(=O)CCCC(=O)Nc1ccccc1[N+](=O)[O-])c1c(Cl)cccc1Cl` (stereo not drawn) as the compound, how does the TGI (EKVX NSCLC) read?
Its TGI is greater than 100 µM.

What about the TGI (HOP-92 NSCLC) of the same compound?
Its TGI is greater than 100 µM.

And the TGI (NCI-H522 lung)?
Its TGI is greater than 100 µM.

What about the TGI (SW-620 colon) of the same compound?
Its TGI is greater than 100 µM.

And the TGI (K-562 leukemia)?
Its TGI is greater than 100 µM.

And the TGI (SN12C renal)?
The TGI was greater than 100 µM.

What about the TGI (SF-539 CNS) of the same compound?
The TGI was greater than 100 µM.

And the TGI (OVCAR-5 ovarian)?
Its TGI is greater than 100 µM.

For `CN(C)CCC(N)(P(=O)([O-])[O-])P(=O)([O-])[O-].N.N.[Pt+2]`, which GI50 (EKVX NSCLC) is on record?
The GI50 was greater than 100 µM.

What about the TGI (EKVX NSCLC) of the same compound?
Its TGI is greater than 100 µM.

What about the GI50 (HOP-92 NSCLC) of the same compound?
The GI50 was greater than 100 µM.

And the TGI (HOP-92 NSCLC)?
The TGI was greater than 100 µM.

What about the GI50 (NCI-H522 lung) of the same compound?
The GI50 was greater than 100 µM.

And the TGI (NCI-H522 lung)?
Its TGI is greater than 100 µM.

And the GI50 (SW-620 colon)?
The GI50 was greater than 100 µM.

What about the TGI (SW-620 colon) of the same compound?
The TGI was greater than 100 µM.

And the GI50 (K-562 leukemia)?
Its GI50 is greater than 100 µM.

And the TGI (K-562 leukemia)?
The TGI was greater than 100 µM.

And the GI50 (SN12C renal)?
Its GI50 is greater than 100 µM.

And the TGI (SN12C renal)?
Its TGI is greater than 100 µM.

What about the GI50 (SF-539 CNS) of the same compound?
The GI50 was greater than 100 µM.

And the TGI (SF-539 CNS)?
Its TGI is greater than 100 µM.

What about the GI50 (OVCAR-5 ovarian) of the same compound?
The GI50 was greater than 100 µM.

What about the TGI (OVCAR-5 ovarian) of the same compound?
Its TGI is greater than 100 µM.

How did the TGI (EKVX NSCLC) turn out when `COc1ccc(C2COc3c(ccc(OC)c3OC)C2=O)cc1OC` (stereo not drawn) was run?
The TGI was greater than 100 µM.

And the TGI (HOP-92 NSCLC)?
Its TGI is greater than 100 µM.

And the TGI (NCI-H522 lung)?
The TGI was greater than 100 µM.

What about the TGI (SW-620 colon) of the same compound?
Its TGI is greater than 100 µM.

What about the TGI (K-562 leukemia) of the same compound?
Its TGI is greater than 100 µM.

What about the TGI (SN12C renal) of the same compound?
Its TGI is greater than 100 µM.

What about the TGI (SF-539 CNS) of the same compound?
Its TGI is greater than 100 µM.

Which results are given for `COc1ccc2c(c1)[C@@H](NC(C)=O)CCc1cc(OC)c(OC)c(OC)c1-2`?
TGI (EKVX NSCLC): > 100 µM; TGI (HOP-92 NSCLC): > 9.04 µM; TGI (SW-620 colon): > 100 µM; TGI (K-562 leukemia): > 100 µM; TGI (MCF7 breast): > 100 µM; TGI (SN12C renal): > 100 µM; TGI (SF-539 CNS): < 0.0154 µM; TGI (OVCAR-5 ovarian): > 100 µM

Which TGI (NCI-H522 lung) does the source give for `O=C1C2C3CC4C5C3C1C5C1(SCCS1)C42` (stereo not drawn) here?
The TGI was greater than 100 µM.

What about the TGI (SW-620 colon) of the same compound?
The TGI was greater than 100 µM.

What about the TGI (K-562 leukemia) of the same compound?
The TGI was greater than 100 µM.

And the TGI (SN12C renal)?
The TGI was greater than 100 µM.

And the TGI (SF-539 CNS)?
Its TGI is greater than 100 µM.

With `NC(N)NCCCc1cn2c(n1)C1CCCN1C(=O)C2Cc1ccccc1` (stereo not drawn) as the compound, how does the TGI (EKVX NSCLC) read?
Its TGI is greater than 100 µM.

And the TGI (NCI-H522 lung)?
The TGI was greater than 100 µM.

What about the TGI (SW-620 colon) of the same compound?
The TGI was greater than 100 µM.

What about the TGI (K-562 leukemia) of the same compound?
Its TGI is greater than 100 µM.

And the TGI (SN12C renal)?
The TGI was greater than 100 µM.

And the TGI (SF-539 CNS)?
The TGI was greater than 100 µM.

And the TGI (OVCAR-5 ovarian)?
Its TGI is greater than 100 µM.

Which TGI (EKVX NSCLC) does the source give for `CC1(OCc2ccccc2)C(=O)N2C1NCC2(C)C` (stereo not drawn) here?
Its TGI is greater than 100 µM.

What about the TGI (SW-620 colon) of the same compound?
The TGI was greater than 100 µM.

And the TGI (K-562 leukemia)?
The TGI was greater than 100 µM.

And the TGI (SN12C renal)?
The TGI was greater than 100 µM.

And the TGI (SF-539 CNS)?
Its TGI is greater than 100 µM.

What does the source list for `CCN(CC)C(=O)CCn1ccc(=O)[nH]c1=O`?
TGI (EKVX NSCLC): > 100 µM; TGI (NCI-H522 lung): > 100 µM; TGI (SW-620 colon): > 100 µM; TGI (K-562 leukemia): > 100 µM; TGI (SN12C renal): > 100 µM; TGI (SF-539 CNS): > 100 µM; TGI (OVCAR-5 ovarian): > 100 µM

`O=C(NCc1cn(Cc2cccc(Oc3ccccc3)c2)nn1)c1cccnc1Nc1ccc(F)cc1` was tested. Which GI50 (EKVX NSCLC) did it give?
Its GI50 is 25.3 µM.

And the TGI (EKVX NSCLC)?
The TGI was greater than 100 µM.

And the GI50 (HOP-92 NSCLC)?
Its GI50 is 10.7 µM.

And the TGI (HOP-92 NSCLC)?
The TGI was 43.5 µM.

And the GI50 (BT-549 breast)?
The GI50 was 45.6 µM.

And the TGI (BT-549 breast)?
The TGI was greater than 100 µM.

And the GI50 (NCI-H522 lung)?
The GI50 was 10.8 µM.

What about the TGI (NCI-H522 lung) of the same compound?
The TGI was greater than 100 µM.

What about the GI50 (SW-620 colon) of the same compound?
Its GI50 is 6.58 µM.

What about the TGI (SW-620 colon) of the same compound?
The TGI was greater than 100 µM.

And the GI50 (K-562 leukemia)?
Its GI50 is greater than 100 µM.

And the TGI (K-562 leukemia)?
Its TGI is greater than 100 µM.

What about the GI50 (SN12C renal) of the same compound?
Its GI50 is 52.6 µM.

What about the TGI (SN12C renal) of the same compound?
Its TGI is greater than 100 µM.

What about the GI50 (SF-539 CNS) of the same compound?
The GI50 was 15.1 µM.

And the TGI (SF-539 CNS)?
The TGI was greater than 100 µM.

What about the GI50 (OVCAR-5 ovarian) of the same compound?
The GI50 was greater than 100 µM.

And the TGI (OVCAR-5 ovarian)?
Its TGI is greater than 100 µM.

For `CC(=O)OC(C)(C)C1CC[C@]2(C)/C=C/C(C)C[C@@H](O)/C=C(\C)CC(O)C12` (stereo partly drawn), which TGI (EKVX NSCLC) is on record?
The TGI was greater than 100 µM.

And the TGI (HOP-92 NSCLC)?
The TGI was greater than 100 µM.

And the TGI (SW-620 colon)?
The TGI was greater than 100 µM.

What about the TGI (K-562 leukemia) of the same compound?
The TGI was greater than 100 µM.

And the TGI (SN12C renal)?
The TGI was greater than 100 µM.

What about the TGI (SF-539 CNS) of the same compound?
Its TGI is greater than 100 µM.

And the TGI (OVCAR-5 ovarian)?
The TGI was greater than 100 µM.

`O=C(O)CN1CCSc2ccccc2CN(CC(=O)O)CCSc2ccccc2C1` was tested. Which TGI (EKVX NSCLC) did it give?
Its TGI is greater than 100 µM.

And the TGI (HOP-92 NSCLC)?
Its TGI is greater than 100 µM.

What about the TGI (NCI-H522 lung) of the same compound?
The TGI was greater than 100 µM.

What about the TGI (SW-620 colon) of the same compound?
Its TGI is greater than 100 µM.

And the TGI (K-562 leukemia)?
Its TGI is greater than 100 µM.

What about the TGI (SN12C renal) of the same compound?
Its TGI is greater than 100 µM.

What about the TGI (SF-539 CNS) of the same compound?
The TGI was greater than 100 µM.

What about the TGI (OVCAR-5 ovarian) of the same compound?
The TGI was greater than 100 µM.

What does the source list for `C=C(Br)C(C)(Cl)CCC(Br)C(C)(C)Br` (stereo not drawn)?
TGI (HOP-92 NSCLC): > 100 µM; TGI (NCI-H522 lung): > 100 µM; TGI (SW-620 colon): > 100 µM; TGI (K-562 leukemia): 80.9 µM; TGI (SN12C renal): > 100 µM; TGI (SF-539 CNS): > 100 µM; TGI (OVCAR-5 ovarian): > 100 µM
